These results are taken from EP2907512A1, “Inhibitors of MMP-12 as antiviral Agents” (COMMISSARIAT A L'ENERGIE ATOMIQUE ET AUX ENERGIES …, priority 2014, dated 2015).

The test system of this experiment is HeLa cells. Briefly: IFNα secretion (ELISA) and IFNα immunostaining in CVB3-infected HeLa cells pre-treated with inhibitors. Type of experiment: cell-based. To be noted: for IFNα secretion: cells infected with CVB3, ELISA of medium, vs DMSO control. In general terms: An ELISA detects its analyte on a solid surface through an enzyme-linked reagent.

On to `Cc1ccc(S(=O)(=O)/C=C/C#N)cc1` [Bay11-7082], for which the IFNα secretion entry was “not secreted”. For the same molecule, the “intracellular IFNα staining” value (HeLa cells infected with CVB3 for 4 h, immunostaining) is “greater intracellular IFNα staining”.
With `N#CC(=C(/N)Sc1ccccc1N)/C(C#N)=C(\N)Sc1ccccc1N` [Compound U0126], the IFNα secretion result was “secreted”.
